Paper PMC7902475 (Traffic (Copenhagen, Denmark), 2020)
Changes are numbered by the printed parent chain.

What was measured:
ALFY-FYVE [1] = biological target: T1, ALFY-FYVE (Homo sapiens, UniProt Q8IZQ1, E3471K); assay: 1H-15N HSQC NMR titration, chemical shift perturbation fit; assay type: binding
T1 sequence (Q8IZQ1 3428-3518 E3471K): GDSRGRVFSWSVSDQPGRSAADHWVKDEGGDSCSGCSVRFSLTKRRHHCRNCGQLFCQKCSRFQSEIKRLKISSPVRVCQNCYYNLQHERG

ALFY-FYVE [2] = biological target: T2, ALFY-FYVE (Homo sapiens, UniProt Q8IZQ1); assay: as above; assay type: binding
T2 sequence (Q8IZQ1 3428-3518): T1 sequence (Q8IZQ1 3428-3518 E3471K) with K44E

O=P(O)(O)O[C@@H]1[C@H](O)[C@H](OP(=O)(O)O)[C@@H](O)[C@H](O)[C@H]1O [Ins(1,3)P2]
Kd (ALFY-FYVE [1]): 82.8 to 270 µM | Kd (ALFY-FYVE [2]): 50.5 to 184 µM
